As a reminder, the IC50 is the concentration needed to halve the response being measured.

The nature of series [1]: Degradation in aqueous solution of pH about 3 during HPLC purification and lyophilization. The conditions noted are these: during HPLC purification and subsequent lyophilization.
For series [2], the target named is recombinant human prolyl oligopeptidase (PREP) (Homo sapiens (Human), UniProt P48147). The series is described as follows: In vitro assay prolyl oligopeptidase IC50 (Example 21). It counts as biochemical. The protocol:
(§1) The purpose of this assay is to determine the IC50 of various inhibitors against recombinant human dipeptidyl peptidase IV (DPPIV), fibroblast activation protein (FAP) or prolyl oligopeptidase (PREP).
(§2) The assays are conducted in the following steps: • 1 Dissolve the compound in DMSO to a final concentration of 100 mM. From this, prepare a 1 mM stock at pH 7.5 in 50 mM Tris, 140 mM NaCl Buffer (FAP)/pH 7.5 in 25 mM Tris, 250 mM NaCl Buffer/[…]. • 2. Serial dilute (1:10) the 1 mM compound stocks prepared previously into the appropriate assay buffer (FAP: 50 mM Tris, 140 mM NaCl, pH 7.5/PREP: 25 mM Tris, 0.25 M NaCl, pH 7.5/DPPIV: 25 mM Tris, pH 8.0) to one row of a 96-well plate. • 3. […] Dilute the enzymes into their appropriate assay buffers. The final enzyme concentrations should be 0.1, 1.2, and 0.6 nM for DPPIV, FAP and PREP respectively. Add 180 μL to each well needed in columns 2-10. Column 1(A,B,C) should be prepared with 200 μl of appropriate assay buffer as control. Column 1(D,E,F,G,H) should be prepared with 20 μl of appropriate assay buffer and 180 ul enzyme as no inhibitor control. • 5. Add 20 μL of the compound of interest from the dilution plate prepared in step 2 to columns 2-10 of the assay plate where appropriate. Each sample should be tested in triplicate. Allow this to incubate for 10 minutes at room temperature, shaking the plate for the first two minutes. • 6. Add 10 μL of 20× substrate prepared in step 3 to each well and allow this to incubate for 15 minutes at room temperature, shaking the plate for the first two minutes. • 7. Read the fluorescence at λex: 380, λem: 460. (DPcore=[dAla|dSer|Gly]-[boroPro|Pro-nitrile], XXaa=alpha-amino acid)

Series [3] concerns the target recombinant human dipeptidyl peptidase IV (DPPIV) (Homo sapiens (Human), UniProt P27487). The series is described as follows: In vitro assay dipeptidyl peptidase IV IC50 (Example 21). It counts as biochemical. The procedure:
as §1, §2

Series [4] addresses recombinant human fibroblast activation protein (FAP) (Homo sapiens (Human), UniProt Q12884). The series is described as follows: In vitro assay fibroblast activation protein IC50 (Example 21). It counts as biochemical.
Series [5] is described as follows: Radiochemical purity over time at room temperature (radio-HPLC). It counts as physicochemical. The protocol: The labeling efficiency was analyzed by instant thin layer chromatography (iTLC) and was typically >98%. For iTLC analysis, 1 μL of diluted labeling solution was applied to a strip of iTLC-SA chromatography paper (Agilent P/N A120B12, 114×2.5 mm) and developed in 0.1M citrate buffer (8 cm solvent migration) to assess free ^177Lu (Rf>0.5) and [^177Lu]-6555 (Rf˜0). The iTLC strips were analyzed using an Eckert & Ziegler AR-2000 Radio-TLC Imaging Scanner. The radiochemical purity was analyzed by high performance chromatography (HPLC) and was typically >90%. Briefly, the product was analyzed using a Phenomenex Luna 3.0 μm C18(2), 100 Å, 150 mm×4.6 mm column. Eluent A: 50 mM ammonium acetate in water, eluent B: acetonitrile. Gradient: 2% B from 0-5 min; 2% to 26% B from 5-20 min; 26% to 98% B from 20-25 min; 98% to 2% B from 25-26 min; 2% B from 26-30 min. Flow rate: 1.0 mL/min, Radio-HPLC detector: NaI (Eckert & Zeigler FC-1000), UV: 215 nm. The radiochemical purity remained >90% for three days at room temperature.
The above depicted radiopharmaceutical [^177Lu]-6952 can be prepared as described in Example 20 using the radiochemical precursor 6952 (Example 21 above). The labeling efficiency was analyzed by instant thin layer chromatography (iTLC) and was typically >98%. […] The iTLC strips were analyzed using an Eckert & Ziegler AR-2000 Radio-TLC Imaging Scanner. The radiochemical purity was analyzed by high performance chromatography (HPLC) and was typically >90%. Briefly, the product was analyzed using a Phenomenex Luna 3.0 μm C18(2), 100A, 150 mm×4.6 mm column. […]
The labeling efficiency was analyzed by instant thin layer chromatography (iTLC) and was typically >95%. […] The iTLC strips were analyzed using an Eckert & Ziegler AR-2000 Radio-TLC Imaging Scanner. The radiochemical purity was analyzed by high performance chromatography (HPLC) and was typically >95%. Briefly, the product was analyzed using a Phenomenex Luna 3.0 μm C18(2), 100A, 150 mm×4.6 mm column. […]
The labeling efficiency was analyzed by instant thin layer chromatography (iTLC) and was typically >95%. […]

The target in series [6] is recombinant human FAP (Homo sapiens (Human), UniProt Q12884). The series is described as follows: In vitro enzyme IC50 assay, FAP (Example 16). It counts as biochemical. Conditions: 10 min preincubation at 25° C.; Z-Gly-Pro-AMC. The protocol:
Biological Materials: For the in vitro IC50 determination assays, recombinant human DPPIV, DPP9, FAP, and PREP were purchased from R&D Systems, and DPP8 was from Biomol International. Buffer systems used were A (25 mM Tris, pH 8.0), B (50 mM Tris, pH 7.5), C (50 mM Tris, 140 mM NaCl, pH 7.5), D (25 mM Tris, 250 mM NaCl, pH 7.5), and E (20 mM Tris, 20 mM KCl, pH 7.4). […] Substrate Specificity Assay. Peptide libraries (0.21 mM) were incubated for 24 h with 1 nM FAP in buffer E at 37° C. The reaction was quenched by the addition of 1.2 N HCl. The samples were analyzed by reverse-phase HPLC-MS on a Thermo Finnigan LCQ Duo, quantifying the peaks in the resulting base peak chromatograms. Relative cleavage values were determined by comparing the postquench abundance of intact peptides to those in the initial library.
In Vitro Enzyme IC50 Assays. Enzymatic activity of DPPIV, DPP8, DPP9, FAP, and PREP was measured at 25° C. on a Molecular Devices M2e multidetection microtiter plate reader, monitoring the fluorescence at an excitation wavelength of 380 nm and an emission wavelength of 460 nm. The substrate was either H-Gly-Pro-AMC for the DPPIV, DPP8, and DPP9 assays or Z-Gly-Pro-AMC for the FAP and PREP assays. […] The final enzyme concentrations were 0.1, 0.8, 0.4, 1.2, and 0.6 nM for DPPIV, DPP8, DPP9, FAP, and PREP, respectively. […] Those prepared in pH 2.0 solution were preincubated at 25° C. for 4 h prior to dilution. Immediately prior to the commencement of the experiment, the 100 mM stocks were further diluted to 10^-3 M in the appropriate assay buffer, from which 1:10 serial dilutions were prepared. All inhibitors were tested in triplicate.

[7] abbreviates: for three days at room temperature, formulation with N-acetyl methionine.

Like-named read-outs stand apart in the source and are kept apart here.

Chain of recombinant human fibroblast activation protein (FAP) (Q12884 whole entry): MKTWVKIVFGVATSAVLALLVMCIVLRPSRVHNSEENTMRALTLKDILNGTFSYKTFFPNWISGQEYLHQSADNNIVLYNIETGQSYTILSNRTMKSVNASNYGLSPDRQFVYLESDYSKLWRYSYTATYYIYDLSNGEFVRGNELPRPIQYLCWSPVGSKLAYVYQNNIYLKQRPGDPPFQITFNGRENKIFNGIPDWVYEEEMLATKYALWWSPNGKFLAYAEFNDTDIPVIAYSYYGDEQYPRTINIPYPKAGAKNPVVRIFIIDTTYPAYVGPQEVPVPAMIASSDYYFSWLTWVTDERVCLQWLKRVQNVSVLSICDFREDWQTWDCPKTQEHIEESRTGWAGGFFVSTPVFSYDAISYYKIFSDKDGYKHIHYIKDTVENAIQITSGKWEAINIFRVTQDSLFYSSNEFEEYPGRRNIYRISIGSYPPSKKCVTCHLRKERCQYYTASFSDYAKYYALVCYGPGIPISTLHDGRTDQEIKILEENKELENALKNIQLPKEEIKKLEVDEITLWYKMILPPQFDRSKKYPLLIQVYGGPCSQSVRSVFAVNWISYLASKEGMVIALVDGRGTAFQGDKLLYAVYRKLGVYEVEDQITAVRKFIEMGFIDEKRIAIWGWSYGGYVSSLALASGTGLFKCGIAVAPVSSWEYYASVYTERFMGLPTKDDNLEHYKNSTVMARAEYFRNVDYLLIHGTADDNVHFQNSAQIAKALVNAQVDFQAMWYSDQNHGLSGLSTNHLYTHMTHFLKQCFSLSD
Chain of recombinant human prolyl oligopeptidase (PREP) (P48147 whole entry): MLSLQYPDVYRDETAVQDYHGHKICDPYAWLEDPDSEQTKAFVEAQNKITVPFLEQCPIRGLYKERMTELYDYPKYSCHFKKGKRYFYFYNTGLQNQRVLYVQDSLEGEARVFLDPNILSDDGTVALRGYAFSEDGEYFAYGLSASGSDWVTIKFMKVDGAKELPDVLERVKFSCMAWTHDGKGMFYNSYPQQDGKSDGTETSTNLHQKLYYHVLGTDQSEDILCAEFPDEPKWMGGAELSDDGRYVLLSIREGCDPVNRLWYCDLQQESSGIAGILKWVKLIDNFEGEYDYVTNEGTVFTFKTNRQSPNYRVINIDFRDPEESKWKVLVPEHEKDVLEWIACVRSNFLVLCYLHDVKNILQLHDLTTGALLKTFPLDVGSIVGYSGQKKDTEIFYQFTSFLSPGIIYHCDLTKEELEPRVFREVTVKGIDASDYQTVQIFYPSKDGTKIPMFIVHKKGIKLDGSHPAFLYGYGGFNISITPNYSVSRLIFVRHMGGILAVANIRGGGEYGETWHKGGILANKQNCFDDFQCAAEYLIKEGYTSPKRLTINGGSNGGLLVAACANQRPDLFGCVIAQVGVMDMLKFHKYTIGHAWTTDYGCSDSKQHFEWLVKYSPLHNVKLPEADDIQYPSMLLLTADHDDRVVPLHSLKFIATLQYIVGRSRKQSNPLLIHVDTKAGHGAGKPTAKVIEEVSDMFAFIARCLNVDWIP
Chain of recombinant human FAP (Q12884 whole entry): as the sequence (Q12884 whole entry) above
Chain of recombinant human dipeptidyl peptidase IV (DPPIV) (P27487 whole entry): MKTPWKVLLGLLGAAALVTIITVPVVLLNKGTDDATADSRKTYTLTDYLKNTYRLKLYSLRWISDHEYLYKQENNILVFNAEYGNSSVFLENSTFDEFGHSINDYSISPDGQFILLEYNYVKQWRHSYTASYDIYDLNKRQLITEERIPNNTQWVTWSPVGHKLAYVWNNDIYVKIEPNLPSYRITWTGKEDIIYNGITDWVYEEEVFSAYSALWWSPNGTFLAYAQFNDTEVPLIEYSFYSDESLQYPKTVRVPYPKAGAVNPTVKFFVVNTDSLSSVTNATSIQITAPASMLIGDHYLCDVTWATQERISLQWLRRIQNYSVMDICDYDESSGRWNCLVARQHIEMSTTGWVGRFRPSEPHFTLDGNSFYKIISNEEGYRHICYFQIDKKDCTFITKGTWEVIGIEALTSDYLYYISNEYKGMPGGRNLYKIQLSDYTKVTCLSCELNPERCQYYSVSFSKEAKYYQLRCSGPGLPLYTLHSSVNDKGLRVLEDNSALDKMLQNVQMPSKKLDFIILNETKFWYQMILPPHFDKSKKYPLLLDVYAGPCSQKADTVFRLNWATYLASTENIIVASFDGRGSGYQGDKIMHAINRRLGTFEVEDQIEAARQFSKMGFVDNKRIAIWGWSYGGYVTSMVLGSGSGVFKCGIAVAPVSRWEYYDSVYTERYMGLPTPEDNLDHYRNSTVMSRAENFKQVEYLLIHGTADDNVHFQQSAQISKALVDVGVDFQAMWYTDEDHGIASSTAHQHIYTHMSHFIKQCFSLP

For `C[C@@H](NC(=O)c1ccc(CNC(=O)CN2CCN3CCN4CCN(CC2)CC(=O)[O][Ga]([O]C(=O)C3)[O]C(=O)C4)cc1)C(=O)N1CCC[C@H]1B(O)O` [6555GA], in series [1], the “degradation in aqueous solution” value was “did not observe any sign of degradation”. In addition, the IC50 in series [2] is 3.6 µM; in series [3], more than 100 µM; in series [4], 55 nM. As for `C[C@@H](NC(=O)c1ccc(CNC(=O)CN2CCN3CCN4CCN(CC2)CC(=O)O[CH2][Ga]([CH2]COC(=O)C3)[CH2]COC(=O)C4)cc1)C(=O)N1CCC[C@H]1B(O)O` [[^68Ga]-6555], the radiochemical purity remained in series [5] (for 4 hours at room temperature) is more than 95%. `C[C@@H](NC(=O)c1ccc(CNC(=O)CN2CCN3CCN4CCN(CC2)CC(=O)O[CH2][Lu]([CH2]COC(=O)C3)[CH2]COC(=O)C4)cc1)C(=O)N1CCC[C@H]1B(O)O` [[^177Lu]-6555] gave a radiochemical purity remained in series [5] (setting [7]) of more than 90%. `C[C@@H](NC(=O)[C@H]1CC[C@H](CNC(=O)CN2CCN3CCN4CCN(CC2)CC(=O)O[CH2][Lu]([CH2]COC(=O)C3)[CH2]COC(=O)C4)CC1)C(=O)N1CCC[C@H]1B(O)O` [[^177Lu]-6952] had a radiochemical purity remained in series [5] (setting [7]) of more than 90%. Consider “DOTA[(Cu(II)]-Ser-D-Ala-boroPro [6509CU]”, for which the half-maximal inhibitory concentration (IC50) was 128 nM in series [6] and 128 nM in series [4] (Z-Gly-Pro-AMC, 1.2 nM enzyme).

For the origin of these results see patent US20240207292A1, “BORONIC ACID COMPOUNDS, COMPOSITIONS AND METHODS” (Trustees of Tufts College, priority 2021, published 2024).
